Results taken from EP1278852B1, “ZSIG33-LIKE PEPTIDES” (ZymoGenetics, Inc., priority 2000, dated 2001).
No end group written: not given here.

Each substance was assayed on ob/ob mice (assay: In vivo glucose absorption (oral glucose challenge)). Details: given orally at 100 µg, 30 minutes prior to an oral glucose challenge; serum glucose.
Experimental: Eight female ob/ob mice, approximately 6 weeks old (Jackson Labs, Bar Harbor, ME) are adapted to a 4 hour daily feeding schedule for two weeks. After two weeks on the feeding schedule, the mice are give 100 µg of a peptide corresponding to the amino acid sequence as shown in SEQ ID NOs:4-6, 9-11, 14-17, 20-22, or 25-26 in 100 µl sterile 0.1% BSA by oral gavage, immediately after their eating period (post-prandially). Thirty minutes later, the mice are challenged orally with a 0.5 ml volume of 25% glucose. Retroorbital bleeds are done to determine serum glucose levels. Blood is drawn prior to peptide dosing, prior to oral glucose challenge, and at 1, 2, 4, and 20 hours following the glucose challenge.

Row | Substance | post-prandial glucose absorption
1 | zsig33-delta: peptide corresponding to residues 1 to 10 of SEQ ID NO:14; listing has 10-residue SEQ ID NO:20 (FNAPFDVGIK) | enhanced post-prandial glucose absorption
2 | zsig33-epsilon: peptide corresponding to residues 1 to 13 of SEQ ID NO:17; listing has 13-residue amidated SEQ ID NO:26 (LSGVQYQQHSQAL-NH2) | enhanced post-prandial glucose absorption
3 | zsig33-gamma: peptide corresponding to residues 1 to 17 of SEQ ID NO:10; listing has 17-residue SEQ ID NO:14 (FLQDILWEEAKEAPADK) | enhanced post-prandial glucose absorption
